Five compounds from patent US20200069686A1, “N-SUBSTITUTED INDOLE DERIVATIVES” (Idorsia Pharmaceuticals Ltd, priority 2017, published 2020) can be followed below.

Common to all, as to type: cell-based
In experiment [1] the target is T1, EP4 (Homo sapiens, UniProt P35408).
T1 construct: BT549 breast cancer cells, express high endogenous EP4 levels and very low EP2 levels; endogenous in cells; host or cells: BT549 breast cancer cells (NCI No. 0507282)
In words: hEP4 cAMP assay (BT549 breast cancer cells, HTRF cAMP). As to conditions: PGE2 6 nM (EC80) as agonist, antagonistic activity. As for the experimental part:
(§1) The antagonistic activities of the compounds of formula (I) on the EP2 and EP4 receptors are also determined in accordance with the following experimental method.
(§2) Human tumor cell lines expressing endogenously either EP4 or EP2 are used and cAMP accumulation in cells upon PGE2 stimulation is monitored. SF295 glioblastoma cells express high endogenous EP2 and no EP4,whereas BT549 breast cancer cells, express high endogenous EP4 levels and very low EP2 levels.
(§3) As a detection method for cAMP the HTRF (homogeneous time resolved fluorescence) Cisbio kit (HTRF cAMP dynamic 2 kit 20′000 tests Cisbio Cat. #62AM4PEC) was used, which is based on a competitive immunoassay using a Cryptate-labeled anti-cAMP antibody and d2-labeled cAMP. Native cAMP produced by cells or unlabeled cAMP (for the standard curve) compete with exogenously added d2-labeled cAMP (acceptor) for binding to monoclonal anti-cAMP-Eu3+ Cryptate (donor). A FRET signal (Fluorescence Resonance Energy Transfer) is obtained only if the labeled anti-cAMP antibody binds the d2 labelled cAMP, thus the specific signal (i.e. energy transfer) is inversely proportional to the concentration of cAMP in the standard or sample.
The BT549 cells (NCl/No. 0507282) are detached from culture dishes with a cell dissociation buffer (Invitrogen, 13151-014), and collected in growing medium (GM: RPM11640 (Invitrogen 21875)/10% FCS, 1% Penicilin/streptomycin). Cells are counted washed and resuspended in assay buffer (AB; HBSS, 20 mM HEPES, 0.2% BSA; 2 mM IBMX). 4′000 cells in 5 μL of AB are seeded per well of a small volume 384 well plate (black with flat bottom, Greiner 784076).
Stock solutions of test compounds are made at a concentration of 10 mM in DMSO, and serially diluted in DMSO to concentrations required for inhibition dose response curves (tested concentration range 30 μM-0.4 nM; 30 μM-0.015 nM or 1 μM-0.01 nM).
PGE2 (Cayman 14010, stock solution: 6 μM in DMSO) is used as agonist at 6 nM final concentration, corresponding to EC80.
2.5 μL of diluted compounds are transferred into the assay plate. […] Five μL of each donor (anti-cAMP cryptate) and acceptor (cAMP-d2) are added and the plate is incubated another hour at room temperature in the dark and then read using a BMG LABTECH PHERAstar reader (Excitation: 337 nm, Emission: 620 and 665 nm).
(§4) The obtained Delta F (fluorescence) values (665 nm/620 nM) are converted into % cAMP values using the measurements of the cAMP calibrator provided in the kit. For each compound concentration the percentage of cAMP compared to DMSO control value as average ±STDEV (each concentration is measured in duplicate) is calculated.
(§5) IC50 values and curves are generated with XLfit software (IDBS) using Dose-Response One Site model 203. When compounds were measured multiple times, mean values are given.
(In general: Changes in cAMP serve as a functional read-out for many G protein-coupled receptors.)

For experiment [2], the target named is T2, PTRGER4 (EP4) (Homo sapiens, UniProt P35408).
T2 construct: host or cells: HEK 293 (PathHunter PTGER4 b-arrestin cell line)
T2 sequence (P35408 whole entry): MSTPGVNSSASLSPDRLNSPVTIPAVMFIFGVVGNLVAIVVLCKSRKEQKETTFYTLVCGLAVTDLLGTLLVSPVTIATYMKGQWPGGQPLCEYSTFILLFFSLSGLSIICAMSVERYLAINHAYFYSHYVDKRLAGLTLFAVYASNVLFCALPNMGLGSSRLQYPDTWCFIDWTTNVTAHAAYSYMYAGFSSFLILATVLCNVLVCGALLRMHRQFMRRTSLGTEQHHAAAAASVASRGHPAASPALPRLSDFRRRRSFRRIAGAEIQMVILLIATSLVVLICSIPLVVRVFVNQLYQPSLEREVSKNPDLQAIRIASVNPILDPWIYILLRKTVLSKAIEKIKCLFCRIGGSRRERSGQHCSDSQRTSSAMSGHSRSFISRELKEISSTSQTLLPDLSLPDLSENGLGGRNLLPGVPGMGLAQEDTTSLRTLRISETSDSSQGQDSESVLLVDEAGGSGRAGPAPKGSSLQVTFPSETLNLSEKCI
Description: hEP4 b-arrestin assay (PathHunter HEK 293 PTGER4 b-arrestin cells). As to conditions: PGE2 20 nM (EC80) as agonist, antagonistic activity, read-out: hEP4 beta-arrestin IC50. On the procedure:
(§6) The antagonistic activities of the compounds of formula (I) on the EP2 and EP4 receptors are determined in accordance with the following experimental methods.
(§7) The assay is using the PathHunter™ HEK 293 PTGER2 and PTGER4 b-arrestin cell lines from DiscoverX. The system is based on the Enzyme Fragment Complementation Technology. Two complementing fragments of the b-galactosidase enzyme are expressed within stably transfected cells. The larger portion of b-gal, termed EA for Enzyme Acceptor, is fused to the C-terminus of b-arrestin 2. The smaller fragment, termed ProLink™ tag, is fused to PTGER2 (EP2) or PTRGER4 (EP4) at the C-terminus. Upon activation, b-arrestin is recruited which forces the interaction of ProLink and EA, allowing complementation of the two fragments of b-gal and the formation of a functional enzyme which is capable of hydrolysing the substrate and generating a chemiluminescent signal.
The HEK 293 PTGER4 b-arrestin cells (DiscoverX 93-030-4C1) are detached from culture dishes with a cell dissociation buffer (Invitrogen, 13151-014), and collected in growing medium (GM: DMEM+Glutamax-I (Invitrogen 32430)/10% FCS, 1% Penicilin/streptomycin). 5000 cells per well of a 384 well plate (white with white bottom Greiner 781080) are seeded in 20 μl per well of GM. Plate is incubated at 37° C., 5% CO2 for 24 hours.
(§8) Stock solutions of test compounds are made at a concentration of 10 mM in DMSO, and serially diluted in DMSO to concentrations required for inhibition dose response curves (tested concentration range 10 μM-2 nM or 1 μM-0.2 nM).
PGE2 (Cayman 14010, stock solution: 100 uM in DMSO) is used as agonist at 20 nM final concentration, corresponding to EC80.
Five microliters of diluted compounds are transferred into the assay plate. Plate is pre-incubated 15 minutes at 37° C. Then five microliters of PGE2 (final conc. 20 nM) are transferred into the assay plate. Plate is incubated 120 minutes at 37° C.
PathHunter Glo Detection Kit components are thawed and mix according to manufacturers instructions: 1 part Galacton Star Substrate with 5 parts Emerald II™ Solution, and 19 parts of PathHunter Cell Assay Buffer, respectively. Twelve I of reagent are transferred to the assay plate and incubate for 1 hour at room temperature in the dark. Luminescence counts are read on a BMG Fluostar Optima reader according to manufacturers instructions.
(§9) For each compound concentration calculate of the percentage of activity compared to DMSO control value as average ±STDEV. (each concentration is measured in duplicate)
as §5

Experiment [3] addresses T3, PTGER2 (EP2) (Homo sapiens, UniProt P43116).
T3 construct: host or cells: HEK 293 (PathHunter PTGER2 b-arrestin cell line)
Description: hEP2 b-arrestin assay (PathHunter HEK 293 PTGER2 b-arrestin cells). As to conditions: PGE2 5 μM (EC80) as agonist, antagonistic activity, read-out: hEP2 beta-arrestin IC50. As for the experimental part: as §6, §7
The HEK 293 PTGER2 b-arrestin cells (DiscoverX 93-021-4C1) are detached from culture dishes with a cell dissociation buffer (Invitrogen, 13151-014), and collected in growing medium (GM: DMEM+Glutamax-I (Invitrogen 32430)/10% FCS, 1% Penicilin/streptomycin). 5000 cells per well of a 384 well plate (white with white bottom Greiner 781080) are seeded in 20 ul per well of GM. Plate is incubated at 37° C., 5% CO2 for 24 hours.
as §8
PGE2 (Cayman 14010, stock solution: 10 mM in DMSO) is used as agonist at 5 μM final concentration, corresponding to EC80.
Five microliters of diluted compounds are transferred into the assay plate. Plate is pre-incubated 15 minutes at 37° C. Then five microliters of PGE2 (final conc. 5 μM) are transferred into the assay plate. Plate is incubated 120 minutes at 37° C.
PathHunter Glo Detection Kit components are thawed and mix according to manufacturers instructions: 1 part Galacton Star Substrate with 5 parts Emerald II™ Solution, and 19 parts of PathHunter Cell Assay Buffer, respectively. Twelve μL of reagent are transferred to the assay plate and incubate for 1 hour at room temperature in the dark. Luminescence counts are read on a BMG Fluostar Optima reader according to manufacturers instructions.
as §9, §5

In experiment [4] the target is T4, EP2 (Homo sapiens, UniProt P43116).
T4 construct: SF295 glioblastoma cells express high endogenous EP2 and no EP4; endogenous in cells; host or cells: SF295 glioblastoma cells (NCI No. 0503170)
T4 sequence (P43116 whole entry): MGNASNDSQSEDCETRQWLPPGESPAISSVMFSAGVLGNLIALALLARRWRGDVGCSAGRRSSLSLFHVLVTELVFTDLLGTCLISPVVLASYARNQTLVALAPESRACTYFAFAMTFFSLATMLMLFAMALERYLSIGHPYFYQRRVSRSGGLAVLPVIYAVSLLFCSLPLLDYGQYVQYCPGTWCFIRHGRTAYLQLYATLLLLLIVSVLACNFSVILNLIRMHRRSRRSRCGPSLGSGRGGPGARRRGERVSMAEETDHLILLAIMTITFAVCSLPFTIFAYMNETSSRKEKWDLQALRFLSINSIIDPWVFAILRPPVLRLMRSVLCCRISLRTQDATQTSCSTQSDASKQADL
Description: hEP2 cAMP assay (SF295 glioblastoma cells, HTRF cAMP). As to conditions: PGE2 75 nM (EC80) as agonist, antagonistic activity. On the procedure: as §1, §2, §3
The SF295 cells (NCl/No. 0503170) are detached from culture dishes with a cell dissociation buffer (Invitrogen, 13151-014), and collected in growing medium (GM: RPM11640 (Invitrogen 21875)/10% FCS, 1% Penicilin/streptomycin). Cells are counted washed and resuspended in assay buffer (AB; HBSS, 20 mM HEPES, 0.2% BSA; 2 mM IBMX). 4′000 cells in 5 μL of AB are seeded per well of a small volume 384 well plate (black with flat bottom, Greiner 784076).
Stock solutions of test compounds are made at a concentration of 10 mM in DMSO, and serially diluted in DMSO to concentrations required for inhibition dose response curves (tested concentration range 30 μM-0.4 nM; […] or 1 μM-0.01 nM).
PGE2 (Cayman 14010, stock solution: […] in DMSO) is used as agonist at 75 nM final concentration, corresponding to EC80.
2.5 μL of diluted compounds are transferred into the assay plate. […] Five I of each donor (anti-cAMP cryptate) and acceptor (cAMP-d2) are added and the plate is incubated another hour at room temperature in the dark and then read using a BMG LABTECH PHERAstar reader (Excitation: 337 nm, Emission: 620 and 665 nm).
as §4, §5

The structures appear in SMILES notation.

T1 sequence (P35408 whole entry): as the sequence (P35408 whole entry) above
T3 sequence (P43116 whole entry): as the sequence (P43116 whole entry) above

By IC50 is commonly meant the concentration at which inhibition is half-maximal. As to `Cc1cccc2cc(C)n(CCNc3cc(-c4ccc(C(=O)O)cc4)ncn3)c12` [Example 3, 4-{6-[2-(2,7-Dimethyl-indol-1-yl)-ethylamino]-pyrimidin-4-yl}-benzoic acid], the IC50 in experiment [1] was 5660 nM; in experiment [2], 11000 nM; in experiment [3] it was 8 nM; in experiment [4], 5 nM.

Consider `O=C(O)c1ccc(-c2cc(NCCn3c(Br)cc4ccccc43)ncn2)cc1` [Example 5, 4-{6-[2-(2-Bromo-indol-1-yl)-ethylamino]-pyrimidin-4-yl}-benzoic acid], for which the IC50 in experiment [2] is 4970 nM; in experiment [3], 17 nM.

In the case of `N#Cc1cc2ccccc2n1CCNc1cc(-c2ccc(C(=O)O)cc2)ncn1` [Example 2, 4-{6-[2-(2-Cyano-indol-1-yl)-ethylamino]-pyrimidin-4-yl}-benzoic acid], the 50% inhibitory concentration (IC50) in experiment [1] was 1350 nM; in experiment [2], 2060 nM; in experiment [3], 11 nM; in experiment [4], 10 nM.

For the compound `O=C(O)c1ccc(-c2cc(NCCn3c(Cl)cc4ccccc43)ncn2)cc1` [Example 4, 4-{6-[2-(2-Chloro-indol-1-yl)-ethylamino]-pyrimidin-4-yl}-benzoic acid], the half-inhibitory concentration (IC50) in experiment [1] worked out at 2610 nM; in experiment [2], 2960 nM; in experiment [3], 3 nM; in experiment [4] it was 2 nM.

Take `Cc1cc2ccccc2n1CCNc1cc(-c2ccc(C(=O)O)cc2)ncn1` [Example 1, 4-{6-[2-(2-Methyl-indol-1-yl)-ethylamino]-pyrimidin-4-yl}-benzoic acid]: the IC50 in experiment [1] amounted to 5720 nM; in experiment [2] it was 5970 nM; in experiment [3], 13 nM; in experiment [4], 15 nM.
